Results: patent US20240398771A1, “TREATMENT OF SCLERODERMA AND RAYNAUD'S SYNDROME” (Aisa Pharma, Inc., priority 2023, published 2024)

Tested on: participants with SSc-RP
Test: Frequency of weekly symptomatic RP attacks (patient diary), Phase 2a Part A
Assay type: in vivo, human
Conditions: ITT Part A; for Weekly Symptomatic RP Attacks, Max / Weekly Symptomatic RP Attacks, Mean (SD) / Weekly Symptomatic RP Attacks, Min / Weekly Symptomatic RP Attacks, Q1 / Weekly Symptomatic RP Attacks, Q3: Table A-2, excluding outliers, last 7 days of dosing period
Protocol: Part A—Double-blind, Placebo-controlled, Parallel-group, Dose selection, will assess the safety and efficacy of two doses of cilnidipine (10 mg and 20 mg), alone and in combination with tadalafil. A total of 36 participants will be randomized to one of six pre-specified treatment arms. See Example 3 for data obtained in this phase of the study thus far, on 11 participants.
Please refer to FIG. 1 for treatment arms in Part A of the study. Dosing lasted or will last for 12 (±2) days in which participants self-administered or will self-administer daily doses of assigned treatment in the morning. Each participant took or will take one capsule and one tablet to blind the active therapy being received.
The relevant metrics measured by this tool daily are: • Study medication • SSc-RP symptoms (Reporting an attack including duration of attack) • Severity of the attack considering all symptoms of the attack e.g. tingling, numbness, pain, color changes (VAS 0-10 cm scale) • Participant's location at the time of the attack (inside home/outside home) • Selecting symptoms experienced during the attack (tingling, numbness, pain, color changes, other) • Pain rating during the attack (11-point Likert scale) • The RCS based on how much difficulty participants had with Raynaud's today, how many attacks the participant had, and how long they lasted. Participants will also be asked to consider how much pain, numbness, or other symptoms the Raynaud's caused in fingers (including painful sores), and how much the Raynaud's alone affected the use of hands today (VAS 0-10 cm scale).
Percent change from baseline evaluation for frequency of weekly RP attacks were or will be used as the primary efficacy variable. The sponsor-developed participant-informed diary will be used to record data. Frequency of weekly RP attacks is defined as the total number of RP attacks divided by the number of days with available diary data within the last 7 days of each dosing period then multiplied by 7. Total number of RP attacks during the last 7 days of screening period divided by the number of days with available data then multiplied by 7 will be used as baseline for the analysis of all periods.
Percentage change={(weekly RP attacks for the last 7 days of each dosing period−Baseline weekly RP attacks)/Baseline weekly RP attacks}*100%.
Absolute change=weekly RP attacks for the last 7 days of each dosing period−Baseline weekly RP attacks
Percent change from baseline evaluation for frequency of weekly RP attacks was and will be the primary efficacy endpoint. Frequency of weekly RP attacks is defined as the total number of RP attacks divided by the number of days with available diary data within the last 7 days of each dosing period then multiplied by 7. Total number of RP attacks during the last 7 days of screening period divided by the number of days with available data then multiplied by 7 will be used as baseline for the analysis of all periods.
The following data was actually obtained in accordance with the protocol and plan delineated in Examples 1 and 2. The accompanying data involved 11 patients out of the planned 76 patient study. The study was done in patients with scleroderma (systemic sclerosis) who had relatively frequent Raynaud symptoms as they needed to average at least one attack per day during a screening period of up to two weeks. In this first phase of this double-blind placebo-controlled, prospective randomized study, patients were treated in parallel and after meeting study criteria were randomized to receive either placebo, cilnidipine 10 mg daily, cilnidipine 20 mg daily, tadalafil 5 mg daily, cilnidipine 10 mg plus 5 mg of tadalafil, or cilnidipine 20 mg plus 5 mg of tadalafil.

[1] = Table A-1, last 7 days of dosing vs last 7 days of screening, listed as Cilnidipine 20 mg
[2] = Table A-1, last 7 days of dosing vs last 7 days of screening, listed as Pooled Cilnidipine
[3] = Table A-3 by baseline RCS, first sub-table (RCS <5.0), listed as Cilnidipine 10 mg
[4] = Table A-3 by baseline RCS, first sub-table (RCS <5.0), listed as Cilnidipine 20 mg
[5] = Table A-3 by baseline RCS, first sub-table (RCS <5.0), listed as Pooled Cilnidipine

## COCCOC(=O)C1=C(C)NC(C)=C(C(=O)OC/C=C/c2ccccc2)C1c1cccc([N+](=O)[O-])c1 (centres unmarked) [Cilnidipine, 1,4-dihydro-2,6-dimethyl,4-(3-nitrophenyl)-3,5-pyridinedicarboxylic acid 2-methoxyethyl (2 E)-3-phenyl-2-propenyl ester]
[1]
  Weekly Symptomatic RP Attacks Change from Baseline, Min: −7.0
  Weekly Symptomatic RP Attacks Change from Baseline, Q1: −7.00
  Weekly Symptomatic RP Attacks Change from Baseline, Q3: −2.00
  Weekly Symptomatic RP Attacks Percent Change from Baseline, Max: −28.6%
  Weekly Symptomatic RP Attacks Percent Change from Baseline, Min: −38.9%
[2]
  Weekly Symptomatic RP Attacks Change from Baseline, Max: −2.0
  Weekly Symptomatic RP Attacks Change from Baseline, Min: −7.0
  Weekly Symptomatic RP Attacks Change from Baseline, Q1: −7.00
  Weekly Symptomatic RP Attacks Change from Baseline, Q3: −2.00
  Weekly Symptomatic RP Attacks Percent Change from Baseline, Max: −28.6%
  Weekly Symptomatic RP Attacks Percent Change from Baseline, Min: −38.9%
  Weekly Symptomatic RP Attacks Percent Change from Baseline, Q3: −28.57%
Listed as Cilnidipine 10 mg
  Weekly Symptomatic RP Attacks, Max: 14.0, 14.0
  Weekly Symptomatic RP Attacks, Mean (SD): 14.00
  Weekly Symptomatic RP Attacks, Min: 14.0, 14.0
  Weekly Symptomatic RP Attacks, Q1: 14.00, 14.00
  Weekly Symptomatic RP Attacks, Q3: 14.00, 14.00
Listed as Cilnidipine 20 mg
  Weekly Symptomatic RP Attacks, Max: 11.0
  Weekly Symptomatic RP Attacks, Mean (SD): 8.00 (4.243)
  Weekly Symptomatic RP Attacks, Min: 5.0
  Weekly Symptomatic RP Attacks, Q1: 5.00
  Weekly Symptomatic RP Attacks, Q3: 11.00
Listed as Pooled Cilnidipine
  Weekly Symptomatic RP Attacks, Max: 14.0
  Weekly Symptomatic RP Attacks, Mean (SD): 10.00 (4.583)
  Weekly Symptomatic RP Attacks, Min: 5.0
  Weekly Symptomatic RP Attacks, Q1: 5.00
  Weekly Symptomatic RP Attacks, Q3: 14.00
Table A-3 by baseline RCS, first sub-table (RCS <5.0)
  Weekly Symptomatic RP Attacks Percent Change from Baseline, Min: −33.3, −33.3%
[3]
  Weekly Symptomatic RP Attacks Change from Baseline, Max: −7.0, −7.0
  Weekly Symptomatic RP Attacks Change from Baseline, Min: −7.0, −7.0
  Weekly Symptomatic RP Attacks Change from Baseline, Q1: −7.00, −7.00
  Weekly Symptomatic RP Attacks Change from Baseline, Q3: −7.00, −7.00
  Weekly Symptomatic RP Attacks Percent Change from Baseline, Max: −33.3, −33.3%
[4]
  Weekly Symptomatic RP Attacks Change from Baseline, Max: −2.0
  Weekly Symptomatic RP Attacks Change from Baseline, Min: −7.0
  Weekly Symptomatic RP Attacks Change from Baseline, Q1: −7.00
  Weekly Symptomatic RP Attacks Change from Baseline, Q3: −2.00
  Weekly Symptomatic RP Attacks Percent Change from Baseline, Max: −28.6%
  Weekly Symptomatic RP Attacks Percent Change from Baseline, Min: −38.9%
  Weekly Symptomatic RP Attacks Percent Change from Baseline, Q3: −28.57%
[5]
  Weekly Symptomatic RP Attacks Change from Baseline, Max: −2.0
  Weekly Symptomatic RP Attacks Change from Baseline, Min: −7.0
  Weekly Symptomatic RP Attacks Change from Baseline, Q1: −7.00
  Weekly Symptomatic RP Attacks Change from Baseline, Q3: −2.00
  Weekly Symptomatic RP Attacks Percent Change from Baseline, Max: −28.6%
  Weekly Symptomatic RP Attacks Percent Change from Baseline, Min: −38.9%
  Weekly Symptomatic RP Attacks Percent Change from Baseline, Q3: −28.57%
